ChEMBL document CHEMBL1201862, “PubChem BioAssay data set” (2004)
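The compound was tested at five concentrations on cells cultured in 96-well plates, with a 48-hour exposure period. GI50 = concentration required for 50% inhibition of growth.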 Active and inactive are the calls of the source. Cut-off read from the data, not from the text of the source: active = GI50 up to about 1.1 µM and inactive = higher.

Columns and labels:
Experiment in all cases: NCI tumour cell line growth inhibition, 48 h
NCI-H226 = test system: NCI-H226
OVCAR-5 = test system: OVCAR-5
SK-OV-3 = test system: SK-OV-3
HT-29 = test system: HT-29
UO-31 = test system: UO-31
MOLT-4 = test system: MOLT-4
RXF 393 = test system: RXF 393
HL-60 = test system: HL-60
SK-MEL-5 = test system: SK-MEL-5
NCI-H23 = test system: NCI-H23
OVCAR-8 = test system: OVCAR-8
HCT-116 = test system: HCT-116
MDA-N = test system: MDA-N
U-251 = test system: U-251
NCI-H460 = test system: NCI-H460
IGROV-1 = test system: IGROV-1
SF-268 = test system: SF-268
SF-539 = test system: SF-539
SR = test system: SR

Measured: GI50

NC12CC3C4CC5(N)CC3C(C1)C(C5)C4C2
inactive: NCI-H226 > 100 µM | OVCAR-5 > 100 µM | SK-OV-3 > 100 µM | HT-29 > 100 µM | UO-31 > 100 µM | MOLT-4 > 100 µM | RXF 393 > 100 µM | HL-60 > 100 µM | SK-MEL-5 > 100 µM | NCI-H23 > 100 µM | OVCAR-8 > 100 µM | HCT-116 > 100 µM | MDA-N > 100 µM | U-251 > 100 µM | NCI-H460 > 100 µM | IGROV-1 > 100 µM | SF-268 > 100 µM

COC(=O)C(CCC1(C)OCCO1)=[N+]=[N-]
inactive: SF-539 > 100 µM | NCI-H226 > 100 µM | OVCAR-5 > 100 µM | SK-OV-3 > 100 µM | HT-29 > 100 µM | UO-31 > 100 µM | MOLT-4 > 100 µM | RXF 393 > 100 µM | HL-60 > 100 µM | SK-MEL-5 > 100 µM | SR > 100 µM | NCI-H23 > 100 µM | OVCAR-8 > 100 µM | HCT-116 > 100 µM | U-251 > 100 µM | NCI-H460 > 100 µM | IGROV-1 > 100 µM | SF-268 > 100 µM

O=C(NCc1ccccc1)c1nn[nH]c1O
inactive: NCI-H226 > 100 µM | OVCAR-5 > 100 µM | SK-OV-3 > 100 µM | HT-29 > 100 µM | UO-31 > 100 µM | MOLT-4 > 100 µM | RXF 393 > 100 µM | HL-60 > 100 µM | SK-MEL-5 > 100 µM | NCI-H23 > 100 µM | OVCAR-8 > 100 µM | HCT-116 > 100 µM | MDA-N > 100 µM | U-251 > 100 µM | NCI-H460 > 100 µM | IGROV-1 > 100 µM | SF-268 > 100 µM

Oc1ccc(Br)cc1/C=N/c1ccc(/N=C/c2cc(Br)ccc2O)cc1
inactive: SF-539 > 100 µM | NCI-H226 > 100 µM | OVCAR-5 > 100 µM | SK-OV-3 > 100 µM | HT-29 > 100 µM | UO-31 > 100 µM | MOLT-4 > 100 µM | RXF 393 > 100 µM | HL-60 > 100 µM | SK-MEL-5 > 100 µM | SR > 100 µM | NCI-H23 > 100 µM | OVCAR-8 > 100 µM | HCT-116 > 100 µM | U-251 > 100 µM | NCI-H460 > 100 µM | IGROV-1 > 100 µM | SF-268 > 100 µM

COP(=O)(/C=C/C(NC(=O)C(Cl)(Cl)Cl)c1ccccc1)OC (stereo unspecified)
inactive: NCI-H226 > 100 µM | OVCAR-5 > 100 µM | SK-OV-3 > 100 µM | HT-29 > 100 µM | UO-31 > 100 µM | MOLT-4 > 100 µM | RXF 393 > 100 µM | HL-60 > 100 µM | SK-MEL-5 > 100 µM | NCI-H23 > 100 µM | OVCAR-8 > 100 µM | HCT-116 > 100 µM | MDA-N > 100 µM | U-251 > 100 µM | NCI-H460 > 100 µM | IGROV-1 > 100 µM | SF-268 > 100 µM

CCOc1ccc(/C=C2\NC(=S)N(/C=C3\C(=O)Oc4ccccc4C3=O)C2=O)cc1
inactive: SF-539 16.3 µM | NCI-H226 24.7 µM | OVCAR-5 40.2 µM | SK-OV-3 17.9 µM | HT-29 32.5 µM | UO-31 24.1 µM | MOLT-4 24.3 µM | RXF 393 3.84 µM | HL-60 13.7 µM | SK-MEL-5 19.7 µM | NCI-H23 30 µM | OVCAR-8 19.4 µM | HCT-116 19.5 µM | U-251 29 µM | NCI-H460 21.4 µM | IGROV-1 24.8 µM | SF-268 22.2 µM

CC(C)C(=O)N1Cc2cc(Cl)cc(Cl)c2OC(=O)c2ccccc21
inactive: SF-539 18.7 µM | NCI-H226 23.1 µM | OVCAR-5 27 µM | SK-OV-3 25.9 µM | HT-29 34 µM | UO-31 31.7 µM | MOLT-4 22.6 µM | HL-60 22.6 µM | SK-MEL-5 19.2 µM | NCI-H23 66.2 µM | OVCAR-8 33.7 µM | HCT-116 38 µM | NCI-H460 33 µM | IGROV-1 29.5 µM | SF-268 19.6 µM

O=C(/C=C/c1ccccc1)CCC1C(=O)NC(=O)NC1=O
inactive: SF-539 > 100 µM | NCI-H226 > 100 µM | OVCAR-5 > 100 µM | SK-OV-3 > 100 µM | HT-29 > 100 µM | UO-31 > 100 µM | MOLT-4 35.7 µM | HL-60 > 100 µM | SK-MEL-5 > 100 µM | NCI-H23 > 100 µM | OVCAR-8 > 100 µM | HCT-116 > 100 µM | MDA-N > 100 µM | U-251 > 100 µM | NCI-H460 > 100 µM | IGROV-1 > 100 µM | SF-268 > 100 µM

O=C(NC1CCCCC1)c1nn[nH]c1Cl
inactive: SF-539 > 100 µM | OVCAR-5 > 100 µM | SK-OV-3 > 100 µM | HT-29 > 100 µM | UO-31 > 100 µM | MOLT-4 > 100 µM | RXF 393 > 100 µM | SK-MEL-5 > 100 µM | NCI-H23 > 100 µM | OVCAR-8 > 100 µM | HCT-116 > 100 µM | U-251 > 100 µM | NCI-H460 > 100 µM | IGROV-1 > 100 µM | SF-268 > 100 µM

CC(=N/NC(=S)N1CCCCC1)/C(C)=N\NC(=S)N1CCCCC1
inactive: SF-539 2.35 µM | NCI-H226 1.57 µM | OVCAR-5 1.78 µM | SK-OV-3 1.83 µM | HT-29 1.93 µM | UO-31 1.59 µM | MOLT-4 2.13 µM | RXF 393 1.59 µM | SK-MEL-5 1.57 µM | NCI-H23 2.13 µM | OVCAR-8 2.12 µM | HCT-116 2.34 µM | MDA-N 2.47 µM | U-251 1.97 µM | NCI-H460 1.74 µM | IGROV-1 1.58 µM | SF-268 1.67 µM

CC(C)(O)CCC(O)C(C)(O)C1CCC2(O)C3=CC(=O)C4(O)CC(O)C(O)CC4(C)C3CCC12C.CC(C)(O)CCC(O)C(C)(O)C1CCC2(O)C3=CC(=O)C4CC(O)C(O)CC4(C)C3CCC12C (stereo unspecified)
inactive: SF-539 > 100 µM | NCI-H226 > 100 µM | OVCAR-5 > 100 µM | SK-OV-3 > 100 µM | HT-29 > 100 µM | UO-31 > 100 µM | MOLT-4 > 100 µM | RXF 393 > 100 µM | HL-60 > 100 µM | SK-MEL-5 > 100 µM | SR > 100 µM | NCI-H23 > 100 µM | OVCAR-8 > 100 µM | HCT-116 > 100 µM | U-251 > 100 µM | NCI-H460 > 100 µM | IGROV-1 > 100 µM | SF-268 > 100 µM

Cc1cc(OC(=O)NCn2cc(-c3ccccc3)nn2)ccc1Cl
inactive: SF-539 54.2 µM | NCI-H226 > 100 µM | OVCAR-5 > 100 µM | HT-29 73.5 µM | MOLT-4 28.3 µM | HL-60 44.3 µM | SK-MEL-5 > 100 µM | SR 83 µM | NCI-H23 96.6 µM | OVCAR-8 92.7 µM | HCT-116 85.7 µM | U-251 > 100 µM | NCI-H460 67.6 µM | IGROV-1 37.7 µM | SF-268 48.4 µM
